#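 Step 1: Grow cells in 96-well plates. Step 2: Expose to compound for 48 hours at 5 concentrations. Step 3: Interpolate endpoints linearly; if unreached, use highest concentration. TGI: total growth inhibition.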
# Assays:
# Assay in all cases: NCI anticancer screen, dose series, 48 h
# [1] = tested on: SNB-78 CNS
# [2] = tested on: NCI-H23 lung
# [3] = tested on: 786-0 renal
# [4] = tested on: NCI-H460 lung
# [5] = tested on: LXFL 529 NSCLC
# [6] = tested on: SNB-75 CNS
# [7] = tested on: DLD-1 colon
# [8] = tested on: HCT-15 colon
# [9] = tested on: OVCAR-5 ovarian
# [10] = tested on: ACHN renal
# [11] = tested on: EKVX NSCLC
# [12] = tested on: SF-539 CNS
# [13] = tested on: HCT-116 colon
# [14] = tested on: UACC-257 melanoma
# [15] = tested on: SNB-19 CNS
# [16] = tested on: RXF-631 renal
# [17] = tested on: RXF 393 renal
# [18] = tested on: OVCAR-4 ovarian
# [19] = tested on: HL-60(TB) leukemia
# [20] = tested on: KM20L2 colon
# [21] = tested on: M19-MEL melanoma
# [22] = tested on: MALME-3M melanoma
# [23] = tested on: TK-10 renal
# [24] = tested on: M14 melanoma
# [25] = tested on: OVCAR-8 ovarian
# [26] = tested on: KM12 colon
# [27] = tested on: RPMI-8226 leukemia
# [28] = tested on: A498 renal
# [29] = tested on: NCI-H522 lung
# [30] = tested on: SF-268 CNS
# [31] = tested on: SW-620 colon
# [32] = tested on: CCRF-CEM leukemia
# [33] = tested on: HOP-92 NSCLC
# [34] = tested on: DMS 273 small cell lung
# [35] = tested on: UACC-62 melanoma
# [36] = tested on: DMS 114 small cell lung
# [37] = tested on: IGROV1 ovarian
# [38] = tested on: A549 NSCLC
# [39] = tested on: COLO 205 colon
# [40] = tested on: SN12C renal
# [41] = tested on: NCI-H226 lung
# [42] = tested on: HT29 colon
# [43] = tested on: SK-MEL-2 melanoma
# [44] = tested on: HCC-2998 colon
# [45] = tested on: LOX IMVI melanoma
# [46] = tested on: CAKI-1 renal
# [47] = tested on: SF-295 CNS
# [48] = tested on: UO-31 renal
# [49] = tested on: K-562 leukemia
# [50] = tested on: SK-MEL-28 melanoma
# [51] = tested on: OVCAR-3 ovarian
# [52] = tested on: U251 CNS
# [53] = tested on: HOP-62 NSCLC
# [54] = tested on: MOLT-4 leukemia
# [55] = tested on: SK-MEL-5 melanoma
# [56] = tested on: XF 498 CNS
# [57] = tested on: SK-OV-3 ovarian
# [58] = tested on: SR leukemia
structure (smiles),measurement,setting,value
c1ccc(CNc2ccc3[nH]c4cnccc4c3c2)cc1,TGI,[1],38.5 µM
same,TGI,[2],32.3 µM
same,TGI,[3],29.3 µM
same,TGI,[4],34.1 µM
same,TGI,[5],30.5 µM
same,TGI,[6],19.8 µM
same,TGI,[7],31.9 µM
same,TGI,[8],39.1 µM
same,TGI,[9],30.9 µM
same,TGI,[10],29 µM
same,TGI,[11],43.4 µM
same,TGI,[12],33.3 µM
same,TGI,[13],33.2 µM
same,TGI,[14],31.4 µM
same,TGI,[15],29.6 µM
same,TGI,[16],49.2 µM
same,TGI,[17],26.8 µM
same,TGI,[18],29.1 µM
same,TGI,[19],27.4 µM
same,TGI,[20],30.9 µM
same,TGI,[21],36.3 µM
same,TGI,[22],35.8 µM
same,TGI,[23],36.2 µM
same,TGI,[24],32.9 µM
same,TGI,[25],36.5 µM
same,TGI,[26],31.1 µM
same,TGI,[27],54.7 µM
same,TGI,[28],28.6 µM
same,TGI,[29],29.1 µM
same,TGI,[30],35 µM
same,TGI,[31],42.2 µM
same,TGI,[32],42.5 µM
same,TGI,[33],30.8 µM
same,TGI,[34],37.4 µM
same,TGI,[35],34 µM
same,TGI,[36],32.1 µM
same,TGI,[37],34.4 µM
same,TGI,[38],34.7 µM
same,TGI,[39],31 µM
same,TGI,[40],33.3 µM
same,TGI,[41],38.4 µM
same,TGI,[42],31.7 µM
same,TGI,[43],33.1 µM
same,TGI,[44],33.2 µM
same,TGI,[45],33.5 µM
same,TGI,[46],30.4 µM
same,TGI,[47],32.6 µM
same,TGI,[48],29.4 µM
same,TGI,[49],36.5 µM
same,TGI,[50],27.1 µM
same,TGI,[51],27 µM
same,TGI,[52],32 µM
same,TGI,[53],31.7 µM
same,TGI,[54],36.9 µM
same,TGI,[55],30.2 µM
same,TGI,[56],35.8 µM
same,TGI,[57],41.5 µM
OC1CC1Sc1ccccc1 (stereo not drawn),TGI,[1],> 100 µM
same,TGI,[2],> 100 µM
same,TGI,[3],42.8 µM
same,TGI,[4],> 100 µM
same,TGI,[5],89.2 µM
same,TGI,[6],> 100 µM
same,TGI,[7],> 100 µM
same,TGI,[8],> 100 µM
same,TGI,[9],> 100 µM
same,TGI,[10],> 100 µM
same,TGI,[11],> 100 µM
same,TGI,[12],46.4 µM
same,TGI,[13],62.9 µM
same,TGI,[14],> 100 µM
same,TGI,[15],> 100 µM
same,TGI,[16],> 100 µM
same,TGI,[17],> 100 µM
same,TGI,[18],> 100 µM
same,TGI,[19],39.6 µM
same,TGI,[21],> 100 µM
same,TGI,[22],> 100 µM
same,TGI,[23],> 100 µM
same,TGI,[24],> 100 µM
same,TGI,[25],92.7 µM
same,TGI,[26],> 100 µM
same,TGI,[27],83.4 µM
same,TGI,[28],> 100 µM
same,TGI,[29],39.8 µM
same,TGI,[30],78.1 µM
same,TGI,[31],78.4 µM
same,TGI,[32],> 100 µM
same,TGI,[33],> 100 µM
same,TGI,[34],> 100 µM
same,TGI,[35],> 100 µM
same,TGI,[36],74.4 µM
same,TGI,[37],60.1 µM
same,TGI,[38],> 100 µM
same,TGI,[39],> 100 µM
same,TGI,[40],61.7 µM
same,TGI,[42],> 100 µM
same,TGI,[43],> 100 µM
same,TGI,[44],> 100 µM
same,TGI,[45],71.1 µM
same,TGI,[46],> 100 µM
same,TGI,[47],69.4 µM
same,TGI,[48],33.6 µM
same,TGI,[49],> 100 µM
same,TGI,[50],57.3 µM
same,TGI,[51],78.7 µM
same,TGI,[52],> 100 µM
same,TGI,[53],> 100 µM
same,TGI,[54],91.7 µM
same,TGI,[55],> 100 µM
same,TGI,[56],> 100 µM
same,TGI,[57],> 100 µM
CCOC(=O)C(C(C)=O)C1CC=CC1 (stereo not drawn),TGI,[1],> 100 µM
same,TGI,[3],> 100 µM
same,TGI,[4],> 100 µM
same,TGI,[5],> 100 µM
same,TGI,[6],> 100 µM
same,TGI,[7],> 100 µM
same,TGI,[8],> 100 µM
same,TGI,[9],> 100 µM
same,TGI,[10],> 100 µM
same,TGI,[11],> 100 µM
same,TGI,[13],> 100 µM
same,TGI,[14],> 100 µM
same,TGI,[15],> 100 µM
same,TGI,[16],> 100 µM
same,TGI,[17],> 100 µM
same,TGI,[18],> 100 µM
same,TGI,[19],> 100 µM
same,TGI,[20],> 100 µM
same,TGI,[22],> 100 µM
same,TGI,[23],> 100 µM
same,TGI,[24],> 100 µM
same,TGI,[25],> 100 µM
same,TGI,[26],> 100 µM
same,TGI,[27],> 100 µM
same,TGI,[31],> 100 µM
same,TGI,[32],> 100 µM
same,TGI,[33],> 100 µM
same,TGI,[34],> 100 µM
same,TGI,[35],> 100 µM
same,TGI,[36],> 100 µM
same,TGI,[37],> 100 µM
same,TGI,[38],> 100 µM
same,TGI,[39],> 100 µM
same,TGI,[40],> 100 µM
same,TGI,[41],> 100 µM
same,TGI,[42],> 100 µM
same,TGI,[43],> 100 µM
same,TGI,[44],> 100 µM
same,TGI,[45],> 100 µM
same,TGI,[46],> 100 µM
same,TGI,[47],> 100 µM
same,TGI,[48],> 100 µM
same,TGI,[49],> 100 µM
same,TGI,[50],> 100 µM
same,TGI,[51],> 100 µM
same,TGI,[52],> 100 µM
same,TGI,[53],> 100 µM
same,TGI,[54],> 100 µM
same,TGI,[55],> 100 µM
same,TGI,[56],> 100 µM
same,TGI,[57],> 100 µM
O=c1cccccc1NCCCCCCCCNc1cccccc1=O,TGI,[1],> 100 µM
same,TGI,[2],> 100 µM
same,TGI,[3],> 100 µM
same,TGI,[4],> 100 µM
same,TGI,[5],> 100 µM
same,TGI,[6],> 100 µM
same,TGI,[7],> 100 µM
same,TGI,[8],> 100 µM
same,TGI,[9],> 100 µM
same,TGI,[10],> 100 µM
same,TGI,[11],> 100 µM
same,TGI,[12],> 100 µM
same,TGI,[13],> 100 µM
same,TGI,[14],> 100 µM
same,TGI,[15],> 100 µM
same,TGI,[16],> 100 µM
same,TGI,[17],> 100 µM
same,TGI,[19],> 100 µM
same,TGI,[20],> 100 µM
same,TGI,[21],> 100 µM
same,TGI,[22],> 100 µM
same,TGI,[24],> 100 µM
same,TGI,[25],> 100 µM
same,TGI,[26],> 100 µM
same,TGI,[27],> 100 µM
same,TGI,[29],> 100 µM
same,TGI,[30],> 100 µM
same,TGI,[31],> 100 µM
same,TGI,[32],> 100 µM
same,TGI,[33],87.3 µM
same,TGI,[34],> 100 µM
same,TGI,[35],> 100 µM
same,TGI,[36],> 100 µM
same,TGI,[37],> 100 µM
same,TGI,[58],> 100 µM
same,TGI,[38],> 100 µM
same,TGI,[39],> 100 µM
same,TGI,[40],> 100 µM
same,TGI,[41],> 100 µM
same,TGI,[42],> 100 µM
same,TGI,[43],> 100 µM
same,TGI,[44],> 100 µM
same,TGI,[45],> 100 µM
same,TGI,[46],> 100 µM
same,TGI,[47],> 100 µM
same,TGI,[48],> 100 µM
same,TGI,[49],> 100 µM
same,TGI,[51],> 100 µM
same,TGI,[52],> 100 µM
same,TGI,[53],> 100 µM
same,TGI,[54],> 100 µM
same,TGI,[56],> 100 µM
same,TGI,[57],> 100 µM
COC(=O)C1=C(C(=O)OC)C2(C)OC1C(=O)C21CC1 (stereo not drawn),TGI,[2],51.2 µM
same,TGI,[3],> 100 µM
same,TGI,[4],63.5 µM
same,TGI,[5],35.1 µM
same,TGI,[6],99.7 µM
same,TGI,[7],51.1 µM
same,TGI,[8],44.6 µM
same,TGI,[9],> 100 µM
same,TGI,[10],41.6 µM
same,TGI,[11],> 100 µM
same,TGI,[12],41.5 µM
same,TGI,[13],43.4 µM
same,TGI,[14],> 100 µM
same,TGI,[15],> 100 µM
same,TGI,[16],36.1 µM
same,TGI,[17],32.3 µM
same,TGI,[18],25.1 µM
same,TGI,[19],39.6 µM
same,TGI,[20],65.7 µM
same,TGI,[21],> 100 µM
same,TGI,[22],70.6 µM
same,TGI,[24],34.9 µM
same,TGI,[25],52.8 µM
same,TGI,[26],> 100 µM
same,TGI,[27],42.7 µM
same,TGI,[29],25.9 µM
same,TGI,[30],> 100 µM
same,TGI,[31],38.6 µM
same,TGI,[32],39.6 µM
same,TGI,[34],40.2 µM
same,TGI,[36],42.9 µM
same,TGI,[37],57.7 µM
same,TGI,[58],44.6 µM
same,TGI,[38],> 100 µM
same,TGI,[39],56.5 µM
same,TGI,[40],43.4 µM
same,TGI,[41],> 100 µM
same,TGI,[42],37 µM
same,TGI,[43],> 100 µM
same,TGI,[44],53 µM
same,TGI,[45],45.3 µM
same,TGI,[46],44.1 µM
same,TGI,[47],> 100 µM
same,TGI,[48],> 100 µM
same,TGI,[49],69.1 µM
same,TGI,[51],55.8 µM
same,TGI,[52],> 100 µM
same,TGI,[53],> 100 µM
same,TGI,[54],44.9 µM
same,TGI,[55],> 100 µM
same,TGI,[56],26.5 µM
same,TGI,[57],> 100 µM

# — PubChem BioAssay (NCI)
